Laboratory results published in patent US6489469B1, “Method for storing or transporting erythritol solution” (Nikken Chemicals Co., Ltd., priority 1999, dated 2002).

Experiments:
[1] = test system: Saccharomyces cerevisiae ATCC 9763; assay: Viable Count of Saccharomyces cerevisiae ATCC 9763 in Erythritol Solution; type: cell-based
Description: (§1) Erythritol solutions of respective concentrations in the range of from 30 to 60% were prepared. To these were inoculated Staphylococcus aureus IFO 13276, Bacillus subtilis IFO 3134, and Escherichia coli IFO 3972 as bacteria, Candida albicans IFO 1549 and Saccharomyces cerevisiae ATCC 9763 as yeasts, Aspergillus niger IFO 6342, Aspergillus flavus IFO 6343, and Penicillium funiculosum IFO 6345 as fungi, respectively, in a population (concentration) of 10,000 cells/mL or more. After the inoculation, the solutions were stored at 30, 37, 45, 50, or 60° C., respectively, for 56 days and the number of viable cell was determined daily. The determination of the number of viable cell was performed by a method of coating 0.1 mL of appropriately diluted sample cultivation on an agar plate and cultivating and counting the number of viable cell (the number of colony) that grew after the cultivation.

[2] = test system: Penicillium funiculosum IFO 6345; assay: Viable Count of Penicillium funiculosum IFO 6345 in Erythritol Solution; type: cell-based
Description: as §1

## OC[C@@H](O)[C@@H](O)CO [Erythritol Solution, erythritol]
[1]; 45° C., 50% w/w, Day 3
  The Number of Viable Cell: 1600 cells/mL
[1]; 45° C., 50% w/w, Day 7
  The Number of Viable Cell: 0 cells/mL
[1]; 45° C., 50% w/w, Day 14
  The Number of Viable Cell: 0 cells/mL
[1]; 45° C., 50% w/w, Day 28
  The Number of Viable Cell: 0 cells/mL
[1]; 45° C., 50% w/w, Day 56
  The Number of Viable Cell: 0 cells/mL
[1]; 50° C., 30% w/w, Day 0
  The Number of Viable Cell: ≥ 10000 cells/mL
[1]; 50° C., 30% w/w, Day 3
  The Number of Viable Cell: 0 cells/mL
[1]; 50° C., 30% w/w, Day 7
  The Number of Viable Cell: 0 cells/mL
[1]; 50° C., 30% w/w, Day 14
  The Number of Viable Cell: 0 cells/mL
[1]; 50° C., 30% w/w, Day 28
  The Number of Viable Cell: 0 cells/mL
[1]; 50° C., 30% w/w, Day 56
  The Number of Viable Cell: 0 cells/mL
[1]; 50° C., 40% w/w, Day 0
  The Number of Viable Cell: ≥ 10000 cells/mL
[1]; 50° C., 40% w/w, Day 3
  The Number of Viable Cell: 0 cells/mL
[1]; 50° C., 40% w/w, Day 7
  The Number of Viable Cell: 0 cells/mL
[1]; 50° C., 40% w/w, Day 14
  The Number of Viable Cell: 0 cells/mL
[1]; 50° C., 40% w/w, Day 28
  The Number of Viable Cell: 0 cells/mL
[1]; 50° C., 40% w/w, Day 56
  The Number of Viable Cell: 0 cells/mL
[1]; 50° C., 50% w/w, Day 0
  The Number of Viable Cell: ≥ 10000 cells/mL
[1]; 50° C., 50% w/w, Day 3
  The Number of Viable Cell: 0 cells/mL
[1]; 50° C., 50% w/w, Day 7
  The Number of Viable Cell: 0 cells/mL
[1]; 50° C., 50% w/w, Day 14
  The Number of Viable Cell: 0 cells/mL
[1]; 50° C., 50% w/w, Day 28
  The Number of Viable Cell: 0 cells/mL
[1]; 50° C., 50% w/w, Day 56
  The Number of Viable Cell: 0 cells/mL
[1]; temperature of 50° C. or more
  growth of the microbes: prevented from growing
  time after which microbes died: 3 days
[2]; 37° C., 30% w/w, Day 0
  The Number of Viable Cell: ≥ 10000 cells/mL
[2]; 37° C., 30% w/w, Day 3
  The Number of Viable Cell: ≥ 10000 cells/mL
[2]; 37° C., 30% w/w, Day 7
  The Number of Viable Cell: ≥ 10000 cells/mL
[2]; 37° C., 30% w/w, Day 14
  The Number of Viable Cell: ≥ 10000 cells/mL
[2]; 37° C., 30% w/w, Day 28
  The Number of Viable Cell: ≥ 10000 cells/mL
[2]; 37° C., 30% w/w, Day 56
  The Number of Viable Cell: ≥ 10000 cells/mL
[2]; 37° C., 40% w/w, Day 0
  The Number of Viable Cell: ≥ 10000 cells/mL
[2]; 37° C., 40% w/w, Day 3
  The Number of Viable Cell: ≥ 10000 cells/mL
[2]; 37° C., 40% w/w, Day 7
  The Number of Viable Cell: ≥ 10000 cells/mL
[2]; 37° C., 40% w/w, Day 14
  The Number of Viable Cell: ≥ 10000 cells/mL
[2]; 37° C., 40% w/w, Day 28
  The Number of Viable Cell: ≥ 10000 cells/mL
[2]; 37° C., 40% w/w, Day 56
  The Number of Viable Cell: ≥ 10000 cells/mL
[2]; 45° C., 30% w/w, Day 0
  The Number of Viable Cell: ≥ 10000 cells/mL
[2]; 45° C., 30% w/w, Day 3
  The Number of Viable Cell: 370 cells/mL
[2]; 45° C., 30% w/w, Day 7
  The Number of Viable Cell: 0 cells/mL
[2]; 45° C., 30% w/w, Day 14
  The Number of Viable Cell: 0 cells/mL
[2]; 45° C., 30% w/w, Day 28
  The Number of Viable Cell: 0 cells/mL
[2]; 45° C., 30% w/w, Day 56
  The Number of Viable Cell: 0 cells/mL
[2]; 45° C., 40% w/w, Day 0
  The Number of Viable Cell: ≥ 10000 cells/mL
[2]; 45° C., 40% w/w, Day 3
  The Number of Viable Cell: 750 cells/mL
[2]; 45° C., 40% w/w, Day 7
  The Number of Viable Cell: 0 cells/mL
[2]; 45° C., 40% w/w, Day 14
  The Number of Viable Cell: 0 cells/mL
[2]; 45° C., 40% w/w, Day 28
  The Number of Viable Cell: 0 cells/mL
[2]; 45° C., 40% w/w, Day 56
  The Number of Viable Cell: 0 cells/mL
[2]; 45° C., 50% w/w, Day 0
  The Number of Viable Cell: ≥ 10000 cells/mL
[2]; 45° C., 50% w/w, Day 3
  The Number of Viable Cell: 1260 cells/mL
[2]; 45° C., 50% w/w, Day 7
  The Number of Viable Cell: 0 cells/mL
[2]; 45° C., 50% w/w, Day 14
  The Number of Viable Cell: 0 cells/mL
[2]; 45° C., 50% w/w, Day 28
  The Number of Viable Cell: 0 cells/mL
[2]; 45° C., 50% w/w, Day 56
  The Number of Viable Cell: 0 cells/mL
[2]; 50° C., 30% w/w, Day 0
  The Number of Viable Cell: ≥ 10000 cells/mL
[2]; 50° C., 30% w/w, Day 3
  The Number of Viable Cell: 0 cells/mL
[2]; 50° C., 30% w/w, Day 7
  The Number of Viable Cell: 0 cells/mL
[2]; 50° C., 30% w/w, Day 14
  The Number of Viable Cell: 0 cells/mL
[2]; 50° C., 30% w/w, Day 28
  The Number of Viable Cell: 0 cells/mL
[2]; 50° C., 30% w/w, Day 56
  The Number of Viable Cell: 0 cells/mL
[2]; 50° C., 40% w/w, Day 0
  The Number of Viable Cell: ≥ 10000 cells/mL
[2]; 50° C., 40% w/w, Day 3
  The Number of Viable Cell: 0 cells/mL
[2]; 50° C., 40% w/w, Day 7
  The Number of Viable Cell: 0 cells/mL
[2]; 50° C., 40% w/w, Day 14
  The Number of Viable Cell: 0 cells/mL
[2]; 50° C., 40% w/w, Day 28
  The Number of Viable Cell: 0 cells/mL
[2]; 50° C., 40% w/w, Day 56
  The Number of Viable Cell: 0 cells/mL
[2]; 50° C., 50% w/w, Day 0
  The Number of Viable Cell: ≥ 10000 cells/mL
[2]; 50° C., 50% w/w, Day 3
  The Number of Viable Cell: 0 cells/mL
[2]; 50° C., 50% w/w, Day 7
  The Number of Viable Cell: 0 cells/mL
[2]; 50° C., 50% w/w, Day 14
  The Number of Viable Cell: 0 cells/mL
[2]; 50° C., 50% w/w, Day 28
  The Number of Viable Cell: 0 cells/mL
[2]; 50° C., 50% w/w, Day 56
  The Number of Viable Cell: 0 cells/mL
[2]; temperature of 50° C. or more
  growth of the microbes: prevented from growing
  time after which microbes died: 3 days
